Experimental data taken from PubChem BioAssay (NCI).
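48-hour exposure; five concentrations; linearly interpolated endpoints. Here, GI50 denotes the concentration required for 50% inhibition of growth. At the TGI there is no net growth.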

Legend:
Assay in all cases: DTP human tumour cell line panel, 48 h
CAKI-1 renal = system: CAKI-1 renal
COLO 205 colon = system: COLO 205 colon
KM12 colon = system: KM12 colon
NCI/ADR-RES ovarian = system: NCI/ADR-RES ovarian
OVCAR-8 ovarian = system: OVCAR-8 ovarian
SF-295 CNS = system: SF-295 CNS
SK-MEL-5 melanoma = system: SK-MEL-5 melanoma
SN12C renal = system: SN12C renal
SNB-75 CNS = system: SNB-75 CNS
SW-620 colon = system: SW-620 colon

For CNC1C(=O)C(C)C(O)(C(CC(C)C(O)/C=C/C=C/CNC(=O)C(C)(C)C(O)\C(C)=C/C=C\C=C\Cc2cnc(C)o2)OC)C12C(=O)OC2COC (stereo not given) (tested in a mixture with another compound), the TGI (CAKI-1 renal) was > 100 µM, the TGI (COLO 205 colon) was 20.2 µM and the TGI (KM12 colon) was 26.1 µM. The TGI (NCI/ADR-RES ovarian) was > 100 µM, the TGI (OVCAR-8 ovarian) was > 100 µM and the TGI (SF-295 CNS) was > 53.3 µM. For the same molecule, the TGI (SK-MEL-5 melanoma) was 18.4 µM, the TGI (SN12C renal) was > 82.7 µM and the TGI (SNB-75 CNS) was 30.6 µM. For the same molecule, the TGI (SW-620 colon) was > 46.9 µM.
For Cn1cc(C2=C(c3cn(C)c4c(N)cccc34)C(=O)NC2=O)c2ccccc21, the GI50 (CAKI-1 renal) was 0.857 µM, the TGI (CAKI-1 renal) was > 25 µM and the GI50 (COLO 205 colon) was 1.99 µM. The TGI (COLO 205 colon) was 9.96 µM, the GI50 (KM12 colon) was 0.968 µM and the TGI (KM12 colon) was 12.1 µM. The GI50 (NCI/ADR-RES ovarian) was 2.02 µM, the TGI (NCI/ADR-RES ovarian) was > 25 µM and the GI50 (OVCAR-8 ovarian) was 2.85 µM. The TGI (OVCAR-8 ovarian) was > 25 µM, the GI50 (SF-295 CNS) was 0.898 µM and the TGI (SF-295 CNS) was > 11.6 µM. For the same molecule, the GI50 (SK-MEL-5 melanoma) was 1.38 µM, the TGI (SK-MEL-5 melanoma) was > 14.2 µM and the GI50 (SN12C renal) was 2.12 µM. The TGI (SN12C renal) was > 25 µM, the GI50 (SNB-75 CNS) was 0.352 µM and the TGI (SNB-75 CNS) was 2.63 µM. For the same molecule, the GI50 (SW-620 colon) was 0.905 µM and the TGI (SW-620 colon) was > 25 µM.
With NCCCCn1c2c(c3ccccc3c1=O)C(=O)c1ccccc1-2 the GI50 (CAKI-1 renal) was 0.0447 µM, the TGI (CAKI-1 renal) was 0.555 µM and the GI50 (COLO 205 colon) was 0.92 µM. The TGI (COLO 205 colon) was 11 µM, the GI50 (KM12 colon) was 0.188 µM and the TGI (KM12 colon) was 0.678 µM. For the same molecule, the GI50 (NCI/ADR-RES ovarian) was 0.709 µM, the TGI (NCI/ADR-RES ovarian) was 2.54 µM and the GI50 (OVCAR-8 ovarian) was 0.0902 µM. The TGI (OVCAR-8 ovarian) was 0.625 µM, the GI50 (SF-295 CNS) was 0.0726 µM and the TGI (SF-295 CNS) was 0.753 µM. For the same molecule, the GI50 (SK-MEL-5 melanoma) was 0.153 µM, the TGI (SK-MEL-5 melanoma) was 1.25 µM and the GI50 (SN12C renal) was 0.0385 µM. The TGI (SN12C renal) was 0.244 µM, the GI50 (SNB-75 CNS) was 0.372 µM and the TGI (SNB-75 CNS) was 2.37 µM. The GI50 (SW-620 colon) was < 0.0185 µM and the TGI (SW-620 colon) was 1.38 µM.
O=C(CCCSc1nc(-c2ccc(Cl)cc2)cc(-c2ccc(Cl)cc2)n1)NO showed a GI50 (CAKI-1 renal) of 0.334 µM, a TGI (CAKI-1 renal) of 10.7 µM and a GI50 (COLO 205 colon) of 2.06 µM. For the same molecule, the TGI (COLO 205 colon) was 6.21 µM, the GI50 (KM12 colon) was 1.96 µM and the TGI (KM12 colon) was 11.3 µM. It also gave a GI50 (NCI/ADR-RES ovarian) of 0.31 µM, a TGI (NCI/ADR-RES ovarian) of 1.9 µM and a GI50 (OVCAR-8 ovarian) of 0.558 µM. For the same molecule, the TGI (OVCAR-8 ovarian) was 28.6 µM, the GI50 (SF-295 CNS) was 1.17 µM and the TGI (SF-295 CNS) was 6.9 µM. For the same molecule, the GI50 (SK-MEL-5 melanoma) was 1.86 µM, the TGI (SK-MEL-5 melanoma) was 4.06 µM and the GI50 (SN12C renal) was 0.513 µM. The TGI (SN12C renal) was 7.22 µM, the GI50 (SNB-75 CNS) was 2.1 µM and the TGI (SNB-75 CNS) was 12 µM. It also gave a GI50 (SW-620 colon) of 0.838 µM and a TGI (SW-620 colon) of 11.5 µM.
With O=c1[nH]c(=O)n(C2CC(O)C(CS)O2)cc1F (stereo not given) the TGI (CAKI-1 renal) was > 100 µM, the TGI (COLO 205 colon) was > 100 µM and the TGI (KM12 colon) was > 100 µM. For the same molecule, the TGI (NCI/ADR-RES ovarian) was > 11.7 µM, the TGI (OVCAR-8 ovarian) was > 63.1 µM and the TGI (SF-295 CNS) was > 100 µM. The TGI (SK-MEL-5 melanoma) was > 100 µM, the TGI (SN12C renal) was > 100 µM and the TGI (SNB-75 CNS) was > 100 µM. The TGI (SW-620 colon) was > 100 µM.
With COc1cc(Cn2c(-c3ccccc3)cc3c2-c2oncc2CC3)cc(OC)c1OC the GI50 (CAKI-1 renal) was 0.566 µM, the TGI (CAKI-1 renal) was > 100 µM and the GI50 (COLO 205 colon) was 0.696 µM. It also gave a TGI (COLO 205 colon) of 3.13 µM, a GI50 (KM12 colon) of 0.585 µM and a TGI (KM12 colon) of 22.8 µM. The GI50 (NCI/ADR-RES ovarian) was 0.328 µM, the TGI (NCI/ADR-RES ovarian) was > 100 µM and the GI50 (OVCAR-8 ovarian) was 5.38 µM. The TGI (OVCAR-8 ovarian) was > 100 µM, the GI50 (SF-295 CNS) was 0.366 µM and the TGI (SF-295 CNS) was 5.57 µM. The GI50 (SK-MEL-5 melanoma) was 0.882 µM, the TGI (SK-MEL-5 melanoma) was 16.8 µM and the GI50 (SN12C renal) was 5.84 µM. For the same molecule, the TGI (SN12C renal) was > 100 µM, the GI50 (SNB-75 CNS) was 0.453 µM and the TGI (SNB-75 CNS) was 3.99 µM. The GI50 (SW-620 colon) was 0.42 µM and the TGI (SW-620 colon) was > 100 µM.
For COc1ccc(C2CC(=O)c3c(O)c(OC)c(OC)c(OC)c3O2)c(O)c1 (stereo not given), the GI50 (CAKI-1 renal) was 0.781 µM, the TGI (CAKI-1 renal) was 60.4 µM and the GI50 (COLO 205 colon) was 4.43 µM. For the same molecule, the TGI (COLO 205 colon) was 18 µM, the GI50 (KM12 colon) was 0.0693 µM and the TGI (KM12 colon) was 15.7 µM. It also gave a GI50 (NCI/ADR-RES ovarian) of 0.0565 µM, a TGI (NCI/ADR-RES ovarian) of 20.6 µM and a GI50 (OVCAR-8 ovarian) of 0.294 µM. The TGI (OVCAR-8 ovarian) was 40.9 µM, the GI50 (SF-295 CNS) was 0.349 µM and the TGI (SF-295 CNS) was 14.6 µM. For the same molecule, the GI50 (SK-MEL-5 melanoma) was 0.0673 µM, the TGI (SK-MEL-5 melanoma) was 2.03 µM and the GI50 (SN12C renal) was 1.23 µM. It also gave a TGI (SN12C renal) of 70.4 µM, a GI50 (SNB-75 CNS) of 0.0625 µM and a TGI (SNB-75 CNS) of 0.858 µM. It also gave a GI50 (SW-620 colon) of 0.0484 µM and a TGI (SW-620 colon) of 21.4 µM.
